Where two headings read alike, the source gives them in different places.
What was measured:
SW620 = test: Inhibition of cells growth by colorimetric assay (SRB), SW620; format: cell-based; conditions: for LC50 / GI50: Homo sapiens; for LC50: SW-620, 48 h; for GI50 / TGI SW-620: SW-620
Protocol: (§1) 2°.—Inhibition of Cells Growth by Colorimetric Assay.
(§2) A colorimetric type of assay, using sulforhodamine B (SRB) reaction has been adapted for a quantitative measurement of cell growth and viability [following the technique described by Philip Skehan, et al. (1990), New colorimetric cytotoxicity assay for anticancer drug screening, J. Natl. Cancer Inst., 82:1107-1112]
(§3) This form of the assay employs 96 well cell culture microplates of 9 mm diameter (Faircloth, 1988; Mosmann, 1983). Most of the cell lines are obtained from American Type Culture Collection (ATCC) derived from different human cancer types.
(§4) Cells are maintained in RPMI 1640 10% FBS, supplemented with 0.1 g/l penicillin and 0.1 g/l streptomycin sulfate and then incubated at 37° C., 5% CO2 and 98% humidity. For the experiments, cells were harvested from subconfluent cultures using trypsin and resuspended in fresh medium before plating.
(§5) Cells are seeded in 96 well microtiter plates, at 5×10^3 cells per well in aliquots of 195 μl medium, and they are allowed to attach to the plate surface by growing in drug free medium for 18 hours. Afterward, samples are added in aliquots of 5 μl in a ranging from 10 to 10^−8 μg/ml, dissolved in DMSO/EtOH/PBS (0.5:0.5:99). After 48 hours exposure, the antitumor effect are measured by the SRB methodology: cells are fixed by adding 50 μl of cold 50% (wt/vol) trichloroacetic acid (TCA) and incubating for 60 minutes at 4° C. Plates are washed with deionized water and dried. One hundred μl of SRB solution (0.4% wt/vol in 1% acetic acid) is added to each microtiter well and incubated for 10 minutes at room temperature. Unbound SRB is removed by washing with 1% acetic acid. Plates are air dried and bound stain is solubilized with Tris buffer. Optical densities are read on a automated spectrophotometric plate reader at a single wavelength of 490 nm.
(§6) The values for mean+/−SD of data from triplicate wells are calculated. Some parameters for cellular responses can be calculated: GI=growth inhibition, TGI=total growth inhibition (cytostatic effect) and LC=cell killing (cytotoxic effect).
(§7) Obtained results may predict the usefulness of a certain drug as a potential cancer treatment. For this technique, compounds which show GI50 values smaller than 10 μg/ml are selected to continue with further studies. GI50's data allow to predict that not only could a drug be cystostatic, but also it could have a potential in terms of tumor reduction.

A-549 = test: Inhibition of cells growth by colorimetric assay (SRB), A-549; format: cell-based; conditions: for GI50 / LC50 (concentration for 50% cell killing): Homo sapiens, A549, 48 h
Outline: (§8)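 Cells in RPMI 1640 with 10% FBS were seeded at 5×10^3 per well, allowed 18 h to attach, then exposed to compound (10 to 10^−8 μg/ml, in DMSO/EtOH/PBS 0.5:0.5:99) for 48 h. After TCA fixation and SRB staining, bound dye was solubilized in Tris and OD read at 490 nm; GI, TGI and LC derived from triplicates.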

HT-29 = test: Inhibition of cells growth by colorimetric assay (SRB), HT-29; format: cell-based; conditions: for GI50 / LC50 (concentration for 50% cell killing): Homo sapiens, HT-29, 48 h
Outline: as §8

DU-145 = test: Inhibition of cells growth by colorimetric assay (SRB), DU-145; format: cell-based; conditions: for GI50 / CC50: Homo sapiens, DU-145, 48 h
Outline: as §8

MDA-MB-231 = test: Inhibition of cells growth by colorimetric assay (SRB), MDA-MB-231; format: cell-based; conditions: for CC50 / GI50: Homo sapiens; for CC50: MDA-MB-231, 48 h; for GI50: MDA-MB-231
Protocol: as §1, §2, §3, §4, §5, §6, §7

MCF-7 = test: Inhibition of cells growth by colorimetric assay (SRB), MCF-7; format: cell-based; conditions: for CC50 / GI50: Homo sapiens; for CC50: MCF7, 48 h; for GI50: MCF7
Protocol: as §1, §2, §3, §4, §5, §6, §7

SK-MEL-28 = test: Inhibition of cells growth by colorimetric assay (SRB), SK-MEL-28; format: cell-based; conditions: for GI50 / CC50: Homo sapiens, SK-MEL-28, 48 h
Outline: as §8

A-498 = test: Inhibition of cells growth by colorimetric assay (SRB), A-498; format: cell-based; conditions: for LC50 / GI50: Homo sapiens; for LC50: A498, 48 h; for GI50: A498
Protocol: as §1, §2, §3, §4, §5, §6, §7

[1] = SRB, 48 hours exposure, read-out: GI50 SW-620
[2] = A-549, SRB, 48 hours exposure, read-out: GI50 A-549
[3] = read-out: LC50 A-549, A-549, SRB, 48 hours exposure
[4] = HT-29, SRB, 48 hours exposure, read-out: GI50 HT-29
[5] = read-out: LC50 HT-29, HT-29, SRB, 48 hours exposure
[6] = DU-145, SRB, 48 hours exposure, read-out: GI50 DU-145
[7] = read-out: LC50 DU-145, DU-145, SRB, 48 hours exposure
[8] = MB-231, SRB, 48 hours exposure, read-out: GI50 MB-231
[9] = MCF, SRB, 48 hours exposure, read-out: GI50 MCF
[10] = MEL-28, SRB, 48 hours exposure, read-out: GI50 MEL-28
[11] = read-out: LC50 MEL-28, MEL-28, SRB, 48 hours exposure
[12] = A-498, SRB, 48 hours exposure, read-out: GI50 A-498

Source text for Heart: (§9) Toxicity was asssessed by the methods reported in Toxicology in Vitro, 15 (2001) 571-577, J. Luber Narod et al.: “Evaluation of the use of in vitro methodolodies as tools for screening new compounds for potential in vivo toxicity”.
Source text for Kidney: as §9
Source text for Liver: as §9
Source text for Myelo: as §9
Source text for Skeletal: as §9

## COc1cc2c(cc1OC(=O)CCc1ccccc1)CCN[C@]21CS[C@@H]2c3c(OC(C)=O)c(C)c4c(c3[C@H](COC1=O)N1C2[C@H]2c3c(cc(C)c(OC)c3O)C[C@@H]([C@@H]1O)N2C)OCO4 (some centres unmarked) [Compound 72]
SW620; read-out: LC50 SW-620
  LC50: 11.2 nM
SW620; [1]
  GI50: 2.24 nM
SW620; SRB, 48 hours exposure
  TGI SW-620: 3.36E-09
A-549; A-549, SRB, 48 hours exposure
  TGI A-549: 3.36E-09
A-549; [2]
  GI50: 1.12 nM
A-549; [3]
  LC50 (concentration for 50% cell killing): 7.83 nM
HT-29; HT-29, SRB, 48 hours exposure
  TGI HT-29: 7.83E-09
HT-29; [4]
  GI50: 2.24 nM
HT-29; [5]
  LC50 (concentration for 50% cell killing): 11.2 nM
Skeletal
  Toxicity Data Skeletal: 1.32E-08
DU-145; DU-145, SRB, 48 hours exposure
  TGI DU-145: 3.36E-09
DU-145; [6]
  GI50: 2.24 nM
DU-145; [7]
  CC50: 8.95 nM
MDA-MB-231; read-out: LC50 MB-231
  CC50: 11.2 nM
MDA-MB-231; [8]
  GI50: 2.24 nM
MDA-MB-231; MB-231, SRB, 48 hours exposure
  TGI MB-231: 3.36E-09
Kidney
  Toxicity Data Kidney: 1.85E-08
Heart
  Toxicity Data Heart: 3.78E-08
Myelo
  Toxicity Data Myelo: 2.15E-08
MCF-7; read-out: LC50 MCF
  CC50: 11.2 nM
MCF-7; [9]
  GI50: 2.24 nM
MCF-7; MCF, SRB, 48 hours exposure
  TGI MCF: 4.47E-09
SK-MEL-28; [10]
  GI50: 2.24 nM
SK-MEL-28; [11]
  CC50: 7.83 nM
SK-MEL-28; MEL-28, SRB, 48 hours exposure
  TGI MEL-28: 3.36E-09
A-498; A-498, SRB, 48 hours exposure
  TGI A-498: 4.47E-09
A-498; read-out: LC50 A-498
  LC50: 11.2 nM
A-498; [12]
  GI50: 2.24 nM
Liver
  Toxicity Data Liver: 1.55E-08

## COc1cc2c(cc1OC(=O)CCCl)CCN[C@]21CS[C@@H]2c3c(OC(C)=O)c(C)c4c(c3[C@H](COC1=O)N1C2[C@H]2c3c(cc(C)c(OC)c3O)C[C@@H]([C@@H]1O)N2C)OCO4 (some centres unmarked) [Compound 73]
SW620; read-out: LC50 SW-620
  LC50: 9.39 nM
SW620; [1]
  GI50: 0.352 nM
SW620; SRB, 48 hours exposure
  TGI SW-620: 1.17E-09
A-549; A-549, SRB, 48 hours exposure
  TGI A-549: 2.35E-09
A-549; [2]
  GI50: 0.352 nM
A-549; [3]
  LC50 (concentration for 50% cell killing): 5.87 nM
HT-29; HT-29, SRB, 48 hours exposure
  TGI HT-29: 7.04E-09
HT-29; [4]
  GI50: 0.939 nM
HT-29; [5]
  LC50 (concentration for 50% cell killing): 10.6 nM
DU-145; DU-145, SRB, 48 hours exposure
  TGI DU-145: 3.52E-10
DU-145; [6]
  GI50: 0.235 nM
DU-145; [7]
  CC50: 0.939 nM
MDA-MB-231; read-out: LC50 MB-231
  CC50: 1.17 nM
MDA-MB-231; [8]
  GI50: 0.235 nM
MDA-MB-231; MB-231, SRB, 48 hours exposure
  TGI MB-231: 4.69E-11
MCF-7; read-out: LC50 MCF
  CC50: 11.7 nM
MCF-7; [9]
  GI50: 0.704 nM
MCF-7; MCF, SRB, 48 hours exposure
  TGI MCF: 3.52E-09
SK-MEL-28; [10]
  GI50: 0.822 nM
SK-MEL-28; [11]
  CC50: 3.52 nM
SK-MEL-28; MEL-28, SRB, 48 hours exposure
  TGI MEL-28: 9.39E-10
A-498; A-498, SRB, 48 hours exposure
  TGI A-498: 7.04E-10
A-498; read-out: LC50 A-498
  LC50: 3.52 nM
A-498; [12]
  GI50: 0.352 nM

## COc1cc2c(cc1O)CCN(C)[C@]21CS[C@@H]2c3c(OC(C)=O)c(C)c4c(c3[C@H](COC1=O)N1C2[C@@H]2N[C@@H](Cc3cc(C)c(OC)c(O)c32)[C@@H]1C#N)OCO4 (some centres unmarked) [Compound 209]
SW620; read-out: SW-620 LC50
  LC50: 1.3 nM
SW620; SRB assay, 48 hours exposure, read-out: SW-620 GI50
  GI50: 0.0779 nM
SW620; SRB assay, 48 hours exposure
  SW-620 TGI: 3.90E-10
A-549; SRB assay, 48 hours exposure, read-out: A-549 GI50
  GI50: 0.0909 nM
A-549; read-out: A-549 LC50, SRB assay, 48 hours exposure
  LC50 (concentration for 50% cell killing): 1.17 nM
A-549; SRB assay, 48 hours exposure
  A-549 TGI: 3.90E-10
HT-29; SRB assay, 48 hours exposure, read-out: HT-29 GI50
  GI50: 0.0779 nM
HT-29; read-out: HT-29 LC50, SRB assay, 48 hours exposure
  LC50 (concentration for 50% cell killing): 1.17 nM
HT-29; SRB assay, 48 hours exposure
  HT-29 TGI: 3.90E-10
DU-145; SRB assay, 48 hours exposure, read-out: DU-145 GI50
  GI50: 0.013 nM
DU-145; read-out: DU-145 LC50, SRB assay, 48 hours exposure
  CC50: 0.13 nM
DU-145; SRB assay, 48 hours exposure
  DU-145 TGI: 3.90E-11
MDA-MB-231; read-out: MB-231 LC50
  CC50: 1.3 nM
MDA-MB-231; SRB assay, 48 hours exposure, read-out: MB-231 GI50
  GI50: 0.013 nM
MDA-MB-231; SRB assay, 48 hours exposure
  MB-231 TGI: 2.60E-10
MCF-7; read-out: MCF LC50
  CC50: 5.19 nM
MCF-7; SRB assay, 48 hours exposure, read-out: MCF GI50
  GI50: 0.26 nM
MCF-7; SRB assay, 48 hours exposure
  MCF TGI: 7.79E-10
SK-MEL-28; SRB assay, 48 hours exposure, read-out: MEL-28 GI50
  GI50: 0.0649 nM
SK-MEL-28; read-out: MEL-28 LC50, SRB assay, 48 hours exposure
  CC50: 1.3 nM
SK-MEL-28; SRB assay, 48 hours exposure
  MEL-28 TGI: 2.60E-10
A-498; read-out: A-498 LC50
  LC50: 1.3 nM
A-498; SRB assay, 48 hours exposure, read-out: A-498 GI50
  GI50: 0.13 nM
A-498; SRB assay, 48 hours exposure
  A-498 TGI: 3.90E-10

— US7759345B2, “Antitumoral derivatives of ET-743” (priority 2001, dated 2010)
